pIC50: −log10 of the molar value.
Legend:
B-Raf delta1-415 = B-Raf delta1-415 (Homo sapiens, UniProt P15056); assay: B-Raf kinase inhibition (MAPH filter plate, 33P-ATP, MEK1 substrate); details: read-out: Biochemical IC50 B-Raf
Method in brief: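 Radiometric filter-binding assay with B-Raf delta1-415 at a level giving 50% turnover, MEK1 substrate and 33P-ATP (12.5 μCi/ml) in 20 mM Mops pH 7.0 with Mg/Mn, 1 h at room temperature. Inhibitor dilution series from 10 μM; EDTA-stopped reactions captured on phosphocellulose filters, counted by scintillation for IC50.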

HT-29 tumor cells = assay: Anti-proliferative activity, SRB assay; assay type: cell-based, human; details: Homo sapiens, HT-29, 72 h, 72 hours exposure, read-out: CELLULAR IC50 HT-29
Method in brief: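 Cells at 3,000-15,000/well, plated 24 h before compound, exposed to a concentration range for 72 hours. Proliferation measured by SRB staining after cold TCA fixation, absorbance at OD570; IC50 estimated from % inhibition versus DMSO-treated cells.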

Chain of B-Raf delta1-415 (P15056 416-766): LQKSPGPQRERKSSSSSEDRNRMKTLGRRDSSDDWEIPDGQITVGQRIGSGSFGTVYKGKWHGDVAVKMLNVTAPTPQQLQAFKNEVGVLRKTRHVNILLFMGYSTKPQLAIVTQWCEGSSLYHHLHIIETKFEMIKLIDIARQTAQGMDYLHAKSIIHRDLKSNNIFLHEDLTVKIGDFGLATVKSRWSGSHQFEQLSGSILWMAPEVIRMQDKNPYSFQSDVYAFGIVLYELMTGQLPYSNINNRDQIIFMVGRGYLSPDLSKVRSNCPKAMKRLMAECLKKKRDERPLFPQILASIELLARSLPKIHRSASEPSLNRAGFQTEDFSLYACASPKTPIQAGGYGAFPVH

Row | SMILES | pIC50 (B-Raf delta1-415) | pIC50 (HT-29 tumor cells)
1 | O=c1c(-c2c(F)cccc2Cl)cc2cnc(Nc3ccc(N4CCOCC4)cc3)nc2n1OC[C@@H](O)CO [Compound 148] | > 7.00 | > 6.00
2 | O=c1c(-c2c(F)cccc2Cl)cc2cnc(Nc3ccc(N4CCOCC4)cc3)nc2n1OC[C@@H]1CCNC1 [Compound 149] | > 7.00 | > 6.00
3 | COn1c(=O)c(-c2c(Cl)cccc2Cl)cc2cnc(Nc3ccc(C)cc3)nc21 [Compound 150, 6-(2,6-Dichlorophenyl)-2-(4-methylphenyl)-amino-8-methoxy-pyrido[2,3-d]pyrimidin-7-one] | < 6.00 | > 5.00
4 | COn1c(=O)c(-c2c(Cl)cccc2Cl)cc2cnc(Nc3ccc(Cc4n[nH]c(C)n4)cc3)nc21 [Compound 151, 6-(2,6-Dichlorophenyl)-8-methoxy-2-(4-(5-methyl-1,2,4-triazol-3-yl)methylphenyl)-amino-pyrido[2,3-d]pyrimidin-7-one] | > 6.30 | > 6.00
5 | O=c1c(-c2c(F)cccc2Cl)cc2cnc(Nc3ccc(N4CCOCC4)cc3)nc2n1OC[C@H](O)CO [Compound 152] | > 7.00 | > 6.00
6 | O=c1c(-c2c(F)cccc2Cl)cc2cnc(Nc3ccccc3)nc2n1OCc1cccnc1 [Compound 153, 6-(2-Chloro-6-fluorophenyl)-2-phenylamino-8-(pyrid-3-ylmethyl)oxy-pyrido[2,3-d]pyrimidin-7-one] | > 6.30 | > 6.00
7 | COCCN(C)C(=O)c1cc(Nc2ncc3cc(-c4c(Cl)cccc4Cl)c(=O)n(OC)c3n2)cn1C [Compound 154, 6-(2,6-Dichlorophenyl)-8-methoxy-2-(5-N-(2-methoxyethyl)-N-methyl-aminocarbonyl-1-methyl-pyrrol-3-yl)-amino-pyrido[2,3-d]pyrimidin-7-one] | > 6.30 | > 6.00
8 | O=c1c(-c2c(F)cccc2Cl)cc2cnc(Nc3ccc(N4CCOCC4)cc3)nc2n1OC[C@H]1CCNC1 [Compound 155] | > 7.00 | > 6.00
9 | COn1c(=O)c(-c2c(Cl)cccc2Cl)cc2cnc(Nc3cccc(CS(=O)(=O)NCCO)c3)nc21 [Compound 156, 6-(2,6-Dichlorophenyl)-2-(3-((2-hydroxyethylamino)sulfonylmethyl)phenyl)-amino-8-methoxy-pyrido[2,3-d]pyrimidin-7-one] | > 6.30 | > 6.00
10 | COn1c(=O)c(-c2c(Cl)cccc2Cl)cc2cnc(Nc3cccc(S(C)(=O)=O)c3)nc21 [Compound 157, 6-(2,6-Dichlorophenyl)-8-methoxy-2-(3-methylsulfonylphenyl)-amino-pyrido[2,3-d]pyrimidin-7-one] | > 7.00 | > 6.00
11 | COn1c(=O)c(-c2c(Cl)cccc2Cl)cc2cnc(Nc3ccc(SCCCO)cc3)nc21 [Compound 158, 6-(2,6-Dichlorophenyl)-2-(4-(3-hydroxypropyl)thiophenyl)-amino-8-methoxy-pyrido[2,3-d]pyrimidin-7-one] | > 6.30 | > 6.00
12 | COn1c(=O)c(-c2c(Cl)cccc2Cl)cc2cnc(Nc3cc(C(=O)N(C)CCOC(=O)c4cccnc4)n(C)c3)nc21 [Compound 159] | > 6.30 | > 6.00
13 | COn1c(=O)c(-c2c(Cl)cccc2Cl)cc2cnc(Nc3ccc(S(=O)(=O)CCCO)cc3)nc21 [Compound 160, 6-(2,6-Dichlorophenyl)-2-(4-(3-hydroxypropyl)sulfonylphenyl)-amino-8-methoxy-pyrido[2,3-d]pyrimidin-7-one] | > 7.00 | > 6.00
14 | COn1c(=O)c(-c2c(Cl)cccc2Cl)cc2cnc(Nc3cccc(S(C)(=N)=O)c3)nc21 (stereo not drawn) [Compound 161, 6-(2,6-Dichlorophenyl)-8-methoxy-2-(3-methyliminosulfonylphenyl)-amino-pyrido[2,3-d]pyrimidin-7-one] | > 7.00 | > 6.00
15 | COC(=O)c1ccc(Nc2ncc3cc(-c4c(Cl)cccc4Cl)c(=O)n(OC)c3n2)cc1 [Compound 162, 6-(2,6-Dichlorophenyl)-2-(4-methoxycarbonylphenyl)-amino-8-methoxy-pyrido[2,3-d]pyrimidin-7-one] | < 6.00 | > 6.00
16 | COn1c(=O)c(-c2c(Cl)cccc2Cl)cc2cnc(Nc3cc(C(=O)N4CCN(C)CC4)n(C)c3)nc21 [Compound 163, 6-(2,6-Dichlorophenyl)-8-methoxy-2-(5-(4-methylpiperazino)carbonyl-1-methyl-pyrrol-3-yl)-amino-pyrido[2,3-d]pyrimidin-7-one] | > 6.30 | > 6.00
17 | O=c1c(-c2c(F)cccc2Cl)cc2cnc(Nc3ccccc3)nc2n1OCC1CCOCC1 [Compound 164, 6-(2-Chloro-6-fluorophenyl)-2-phenylamino-8-(tetrahydropyran-4-ylmethyl)oxy-pyrido[2,3-d]pyrimidin-7-one] | < 6.00 | > 6.00

Row | SMILES | pIC50 (B-Raf delta1-415) | pIC50 (HT-29 tumor cells)
18 | O=c1c(-c2c(Cl)cccc2Cl)cc2cnc(Nc3ccccc3)nc2n1OCc1cccnc1 [Compound 165, 6-(2,6-Dichlorophenyl)-2-phenylamino-8-(pyrid-3-ylmethyl)oxy-pyrido[2,3-d]pyrimidin-7-one] | > 6.30 | > 6.00
19 | COn1c(=O)c(-c2c(Cl)cccc2Cl)cc2cnc(Nc3ccc(CN4CCN(C(C)C)CC4)cc3)nc21 [Compound 166] | > 6.30 | > 6.00
20 | CCN(CC)Cc1ccc(Nc2ncc3cc(-c4c(Cl)cccc4Cl)c(=O)n(OC)c3n2)cc1 [Compound 167, 6-(2,6-Dichlorophenyl)-2-(4-diethylaminomethylphenyl)-amino-8-methoxy-pyrido[2,3-d]pyrimidin-7-one] | > 6.30 | > 6.00
21 | COn1c(=O)c(-c2c(Cl)cccc2Cl)cc2cnc(Nc3ccc(CN4CC(O)C4)cc3)nc21 [Compound 168] | > 6.30 | > 6.00
22 | COn1c(=O)c(-c2c(Cl)cccc2Cl)cc2cnc(Nc3ccc(CN4CCC[C@H]4CO)cc3)nc21 [Compound 169, 6-(2,6-Dichlorophenyl)-2-(4-(2-(S)-hydroxymethyl-pyrrolidinomethyl)phenyl)-amino-8-methoxy-pyrido[2,3-d]pyrimidin-7-one] | > 6.30 | > 6.00
23 | COCCOn1c(=O)c(-c2c(Cl)cccc2Cl)cc2cnc(Nc3cc(C(=O)N(C)CCOC)n(C)c3)nc21 [Compound 170, 6-(2,6-Dichlorophenyl)-8-(2-methoxyethyl)oxy-2-(5-N-(2-methoxyethyl)-N-methyl-aminocarbonyl-1-methyl-pyrrol-3-yl)-amino-pyrido[2,3-d]pyrimidin-7-one] | > 6.30 | > 6.00
24 | CCOn1c(=O)c(-c2c(Cl)cccc2Cl)cc2cnc(Nc3cc(C(=O)N(C)CCOC)n(C)c3)nc21 [Compound 171, 6-(2,6-Dichlorophenyl)-8-ethoxy-2-(5-N-(2-methoxyethyl)-N-methyl-aminocarbonyl-1-methyl-pyrrol-3-yl)-amino-pyrido[2,3-d]pyrimidin-7-one] | > 6.30 | > 6.00
25 | O=c1c(-c2c(F)cccc2Cl)cc2cnc(Nc3ccc(N4CCOCC4)cc3)nc2n1OCC1CCC1 [Compound 172] | > 6.30 | > 6.00
26 | O=c1c(-c2c(F)cccc2Cl)cc2cnc(Nc3ccc(N4CCOCC4)cc3)nc2n1OCC1CCCC1 [Compound 173] | > 6.30 | > 6.00
27 | COn1c(=O)c(-c2c(Cl)cccc2Cl)cc2cnc(Nc3ccccc3)nc21 [Compound 174, 6-(2,6-Dichlorophenyl)-8-methoxy-2-phenylamino-pyrido[2,3-d]pyrimidin-7-one] | > 6.00 | > 6.00
28 | COn1c(=O)c(-c2c(Cl)cccc2Cl)cc2cnc(Nc3ccc(Cn4cnnc4)cc3)nc21 [Compound 175, 2-(4-(1,3,4-triazol-1-yl)methylphenyl)-amino-6-(2,6-dichlorophenyl)-8-methoxy-pyrido[2,3-d]pyrimidin-7-one] | > 6.30 | > 6.00
29 | COCCN(C)C(=O)c1cc(Nc2ncc3cc(-c4c(Cl)cccc4Cl)c(=O)n(OCC4CC4)c3n2)cn1C [Compound 176, 6-(2,6-Dichlorophenyl)-8-cyclopropylmethyloxy-2-(5-N-(2-methoxyethyl)-N-methyl-aminocarbonyl-1-methyl-pyrrol-3-yl)-amino-pyrido[2,3-d]pyrimidin-7-one] | > 6.30 | > 6.00
30 | COCCN(C)C(=O)c1cc(Nc2ncc3cc(-c4c(Cl)cccc4Cl)c(=O)n(OCC4CCOCC4)c3n2)cn1C [Compound 177, 6-(2,6-dichlorophenyl)-2-(5-N-(2-methoxyethyl)-N-methyl-aminocarbonyl-1-methyl-pyrrol-3-yl)-amino-8-(tetrahydropyran-4-ylmethyl)oxy-pyrido[2,3-d]pyrimidin-7-one] | > 6.30 | > 6.00
31 | COn1c(=O)c(-c2c(Cl)cccc2Cl)cc2cnc(Nc3ccc(CNCCO)cc3)nc21 [Compound 178, 2-(4-(2-hydroxyethylamino)methyl-phenyl)-amino-6-(2,6-dichlorophenyl)-8-methoxy-pyrido[2,3-d]pyrimidin-7-one] | > 6.30 | > 6.00
32 | COn1c(=O)c(-c2c(Cl)cccc2Cl)cc2cnc(Nc3ccc(CN4CC[C@@H](O)C4)cc3)nc21 [Compound 179, 6-(2,6-Dichlorophenyl)-2-(4-(3-(R)-hydroxypyrrolidinomethyl)phenyl)-amino-8-methoxy-pyrido[2,3-d]pyrimidin-7-one] | > 7.00 | > 6.00
33 | COn1c(=O)c(-c2c(Cl)cccc2Cl)cc2cnc(Nc3ccc(CN4CC[C@H](O)C4)cc3)nc21 [Compound 180, 6-(2,6-Dichlorophenyl)-2-(4-(3-(S)-hydroxypyrrolidinomethyl)phenyl)-amino-8-methoxy-pyrido[2,3-d]pyrimidin-7-one] | > 7.00 | > 6.00

From US8518958B2, “Pyrido [2,3-D] pyrimidines and their use as kinase inhibitors” (Forma Therapeutics, Inc., priority 2006, dated 2013)
